Key:
Hck alone = target: T1, Hck alone (Homo sapiens, UniProt P08631); assay: In vitro kinase assay of Hck alone (Z'-LYTE, peptide substrate); format: biochemical; conditions: Z'-Lyte dose-response, FIG. 7
T1 construct: made in house; host or cells: Sf9 insect cells

U87MG cells = conditions: human, 96 h, 30 μM
Description: (§1) Lead compounds from the yeast screen were evaluated for activity in a Nef-dependent HIV replication assay. For these experiments, U87MG astroglioma cells engineered to express the HIV-1 co-receptors CD4 and CXCR4 were employed. Replication of HIV-1 NL4-3 is dependent upon an intact viral nef gene in these cells, making this system suitable to evaluate leads from the Nef-directed screen. U87MG cells were infected with HIV-1 in the presence of the top five compounds identified in the yeast screen, and HIV replication was monitored as p24 release into the culture supernatant 4 days later, as known in the art. As known in the art, “p24” refers to a constituent protein of the capsid of HIV-1.
(§2) The data of Table 1 are presented as percent p24 release relative to control in the absence of compound. […] Data are expressed as percent viable cells relative to untreated control culture.

HIV-1 strain NL4-3 = assay: microbe, parasite or virus in culture; format: cell-based
Description: as §1, §2
It is understood that “strongest” and like terms in the context of inhibitors identified in a library screen refer to compounds that inhibit at the lowest concentrations. For these experiments, the U87MG astroglioma cell line was used as a model system. […] U87MG cells were infected with HIV-1 strain NL4-3 as well as an isogenic variant that fails to express Nef (ΔNef), over a wide range of viral titers and in the presence of each compound at 5 μM. Viral replication was assessed as HIV p24 antigen release into the culture supernatant 4 and/or 5 days later. Methods for the assay of p24 in culture supernatant are well known in the art and include, for example without limitation, immunochemical methods.

Nef:Hck-YEEI complex = Nef:Hck-YEEI complex (Homo sapiens, UniProt P08631); conditions: Z'-Lyte dose-response, FIG. 7
Chain of Nef:Hck-YEEI complex (P08631 with tags, fused parts or gaps isoform P08631-3, other chains not shown): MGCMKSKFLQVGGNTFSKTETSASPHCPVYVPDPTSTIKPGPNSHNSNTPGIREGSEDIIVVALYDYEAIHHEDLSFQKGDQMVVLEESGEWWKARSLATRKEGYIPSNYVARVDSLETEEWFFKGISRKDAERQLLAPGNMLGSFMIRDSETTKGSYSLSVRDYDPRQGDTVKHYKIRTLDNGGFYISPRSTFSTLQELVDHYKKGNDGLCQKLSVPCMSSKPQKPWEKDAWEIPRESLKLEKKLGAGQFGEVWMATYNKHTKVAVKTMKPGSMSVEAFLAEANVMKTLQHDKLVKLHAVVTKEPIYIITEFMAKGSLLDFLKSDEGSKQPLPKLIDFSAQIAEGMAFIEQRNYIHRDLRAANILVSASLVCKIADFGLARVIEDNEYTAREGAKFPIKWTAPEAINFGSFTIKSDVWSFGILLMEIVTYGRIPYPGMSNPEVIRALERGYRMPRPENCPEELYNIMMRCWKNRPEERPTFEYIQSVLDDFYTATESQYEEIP

T1 sequence (P08631 with tags, fused parts or gaps isoform P08631-3): as the sequence (P08631 with tags, fused parts or gaps isoform P08631-3, other chains not shown) above

`Nc1ncnc2oc(-c3ccccc3)c(-c3ccccc3)c12` [IIIi] was tested, and the “Inhibition of Hck alone” value (Hck alone) was “virtually inactive”, the “Cytotoxicity, Viable cell % control” value (U87MG cells) was 94 % control and the activity at 5 µM (HIV-1 strain NL4-3; Human immunodeficiency virus 1, NL43, U-87 MG, 96 h, read-out: HIV p24% Control @ day 4) was 72%. The “Anti-retroviral activity” value (HIV-1 strain NL4-3; data not shown) was “very weak anti-retroviral activity” and the “Inhibition of Nef:Hck complex” value (Nef:Hck-YEEI complex) was “virtually inactive”.

Source: patent publication US8541415B2 (University of Pittsburgh—of the Commonwealth System of …, priority 2008, dated 2013)
